Measurements taken from PMC6628435, “Chemical Synthesis, Proper Folding, Nav Channel Selectivity Profile and Analgesic Properties of the Spider Peptide Phlotoxin 1” (Toxins, 2019).
Bridge positions count the residues as written; N and C are the ends. Peptide text beside a SMILES is read from it.

Target: T1, hNav1.6 (Homo sapiens, UniProt Q9UQD0)
T1 construct: expressed in transfected cells; host or cells: HEK293 cells
Assay: Automated patch-clamp dose-response on hNav1.6 expressed in HEK293 cells
Format: cell-based
Details: 15 to 23 cells per concentration, read-out: calculated IC50
Source text: Following our initial screen for the selectivity of synthetic PhlTx1 and the discovery that Nav1.7 was the main target, we decided to further evaluate the activity of PhlTx1. We used a CHO mammalian cell line expressing the human Nav1.7 instead of Xenopus oocytes for the pharmacological evaluation. To this end, we used an automated patch-clamp system, the Nanion syncropatch 384PE, and a standardized robotic method from Beckmann to apply PhlTx1 in the recording chambers and collect the kinetic information of Nav1.7 current from a high number of Nav1.7-expressing cells. The syncropatch 384PE has the potential to record from 384 cells at a time. 100-ms pulses from −100 mV to −10 mV were applied at a frequency of 0.2 Hz and various concentrations of PhlTx1 were applied to the cells. An example of a Nav1.7 current recording is illustrated in Figure 6A along with the effect of 100 nM PhlTx1. […]
PhlTx1 and other Nav1.7-acting toxins were investigated on CHO cells expressing the human Nav1.7 channel using the Automated patch-clamp system from Nanion (München, Germany), the SyncroPatch 384PE. […] Percentages of current inhibitions were measured at the end of a 12- to 15-min application time (12-min for fast blocking toxins; 15-min for slow blocking ones). […]

T1 sequence (Q9UQD0 whole entry): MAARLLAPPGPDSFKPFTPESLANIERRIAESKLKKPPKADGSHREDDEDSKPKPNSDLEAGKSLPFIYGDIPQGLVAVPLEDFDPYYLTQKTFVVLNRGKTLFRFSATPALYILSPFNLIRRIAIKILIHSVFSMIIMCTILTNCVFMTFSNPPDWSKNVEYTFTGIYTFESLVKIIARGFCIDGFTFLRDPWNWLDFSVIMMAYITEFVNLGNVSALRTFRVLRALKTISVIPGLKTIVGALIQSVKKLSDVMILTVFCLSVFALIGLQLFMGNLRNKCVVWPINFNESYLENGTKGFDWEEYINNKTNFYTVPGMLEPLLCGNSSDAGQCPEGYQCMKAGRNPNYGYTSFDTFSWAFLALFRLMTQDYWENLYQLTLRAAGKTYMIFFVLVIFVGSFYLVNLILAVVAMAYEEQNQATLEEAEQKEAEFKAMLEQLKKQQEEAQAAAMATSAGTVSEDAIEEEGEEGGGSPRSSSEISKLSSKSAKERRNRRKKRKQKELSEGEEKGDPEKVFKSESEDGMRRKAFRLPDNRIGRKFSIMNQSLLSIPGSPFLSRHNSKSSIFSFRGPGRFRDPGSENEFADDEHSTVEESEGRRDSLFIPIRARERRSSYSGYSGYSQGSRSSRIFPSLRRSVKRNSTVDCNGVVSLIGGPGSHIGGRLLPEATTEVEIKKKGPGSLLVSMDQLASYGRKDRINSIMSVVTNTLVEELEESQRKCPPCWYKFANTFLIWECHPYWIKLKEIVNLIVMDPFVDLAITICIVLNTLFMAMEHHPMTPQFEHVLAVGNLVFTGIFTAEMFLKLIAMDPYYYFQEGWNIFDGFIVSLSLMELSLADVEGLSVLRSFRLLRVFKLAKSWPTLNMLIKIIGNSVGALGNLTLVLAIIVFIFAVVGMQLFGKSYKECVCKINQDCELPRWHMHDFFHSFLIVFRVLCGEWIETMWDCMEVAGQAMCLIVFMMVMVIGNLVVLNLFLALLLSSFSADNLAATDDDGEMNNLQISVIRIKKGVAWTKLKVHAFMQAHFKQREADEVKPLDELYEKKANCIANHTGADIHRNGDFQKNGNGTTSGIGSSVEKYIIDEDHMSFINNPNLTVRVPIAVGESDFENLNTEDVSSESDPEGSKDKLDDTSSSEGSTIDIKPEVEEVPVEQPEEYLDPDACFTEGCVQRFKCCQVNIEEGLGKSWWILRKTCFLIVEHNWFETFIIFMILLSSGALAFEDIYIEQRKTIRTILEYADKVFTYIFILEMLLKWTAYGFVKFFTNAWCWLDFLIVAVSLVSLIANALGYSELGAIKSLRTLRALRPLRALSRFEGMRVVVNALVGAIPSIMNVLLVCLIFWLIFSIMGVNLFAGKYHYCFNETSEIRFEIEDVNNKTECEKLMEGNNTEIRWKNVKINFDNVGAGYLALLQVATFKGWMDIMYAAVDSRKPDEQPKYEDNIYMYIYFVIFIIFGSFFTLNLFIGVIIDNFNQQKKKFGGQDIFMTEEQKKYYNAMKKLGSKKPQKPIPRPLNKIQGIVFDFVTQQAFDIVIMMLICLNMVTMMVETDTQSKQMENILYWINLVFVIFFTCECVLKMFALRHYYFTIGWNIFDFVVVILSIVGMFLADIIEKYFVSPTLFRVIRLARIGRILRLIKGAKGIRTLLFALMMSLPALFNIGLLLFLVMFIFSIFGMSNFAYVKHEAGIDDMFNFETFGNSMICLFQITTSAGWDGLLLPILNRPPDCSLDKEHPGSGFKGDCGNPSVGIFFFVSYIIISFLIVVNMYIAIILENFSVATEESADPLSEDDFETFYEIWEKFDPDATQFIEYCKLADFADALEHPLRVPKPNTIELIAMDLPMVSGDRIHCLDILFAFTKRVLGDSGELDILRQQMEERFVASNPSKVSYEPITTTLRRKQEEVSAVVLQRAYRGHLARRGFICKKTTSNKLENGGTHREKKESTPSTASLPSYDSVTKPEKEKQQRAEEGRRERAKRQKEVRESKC

## CC(C)C[C@@H]1NC(=O)[C@@H](NC(=O)[C@H](C)N)CSSC[C@@H]2NC(=O)[C@@H]3CSSC[C@@H](C(=O)N[C@@H](CCCNC(=N)N)C(=O)N[C@@H](Cc4ccc(O)cc4)C(=O)N[C@@H](CCCCN)C(=O)N[C@@H](CC(C)C)C(=O)N[C@@H](Cc4ccccc4)C(=O)O)NC(=O)[C@H](Cc4c[nH]c5ccccc45)NC(=O)[C@@H]4CCCN4C(=O)[C@H](Cc4ccc(O)cc4)NC(=O)[C@H](CCCCN)NC(=O)[C@H](Cc4c[nH]c5ccccc45)NC(=O)[C@H](CCC(=O)O)NC(=O)[C@H](CSSC[C@H](NC(=O)[C@H](CO)NC(=O)[C@H](CC(=O)O)NC(=O)[C@H](Cc4c[nH]c5ccccc45)NC(=O)[C@H](CCC(N)=O)NC(=O)CNC1=O)C(=O)N[C@@H](CC(=O)O)C(=O)N1CCC[C@H]1C(=O)N[C@@H](CCCCN)C(=O)N[C@@H](C)C(=O)N[C@@H](CO)C(=O)N[C@@H](CCCCN)C(=O)N3)NC(=O)[C@H](C)NC(=O)[C@H](Cc1ccc(O)cc1)NC(=O)[C@H](CC(N)=O)NC(=O)[C@@H]1CCCN1C2=O [PhlTx1, Phlotoxin-1] (H-ACLGQWDSCDPKASKCCPNYACEWKYPWCRYKLF-OH; disulfide 2-17, 9-22, 16-29; N-terminus and C-terminus assumed)
  IC50: > 3 µM
